Here are results for nine molecules from ChEMBL document CHEMBL1157495 (Bioorg Med Chem Lett, 2008).

Broadly, the pIC50 is −log10 of the IC50, conventionally taken in molar units. A high value points to a small IC50.

In assay [1] the test system is Plasmodium falciparum. Briefly: Antiplasmodial activity against chloroquine-resistant Plasmodium falciparum W2. The format is functional, organism-based.
For assay [2], the system named is Plasmodium berghei. The assay is described as follows: (§1) Antimalarial activity after 10 days against Plasmodium berghei ANKA infected Anopheles stephensi at 50 uM/kg. Type of assay: functional.
Assay [3] relates to Plasmodium berghei. Briefly: (§2) Antimalarial activity after 10 days against Plasmodium berghei ANKA infected Anopheles stephensi at 10 uM/kg. The format is functional.
The subject of assay [4] is Plasmodium berghei. Described as §2. The format is functional. The source holds these as a separate data set.
Assay [5] deals with Plasmodium berghei. Described as §1. The format is functional. The source holds these as a separate data set.

pIC50: −log10 of the molar value.

As for `COc1cc(NC(C)CCCN2C(=O)[C@H](C)NC2(C)C)c2ncccc2c1` (stereo partly drawn), the pIC50 in assay [1] is less than 4.30.

On to `COc1cc(NC(C)CCCN2C(=O)CN(C(=O)CN)C2(C)C)c2ncccc2c1` (stereo not drawn), for which the Activity is listed as 0.79 in assay [2], 42% in assay [3] and 1.08 in assay [4].

Turning to `COc1cc(NC(C)CCCN2C(=O)CN(C(=O)[C@@H](N)C(C)C)C2(C)C)c2ncccc2c1` (stereo partly drawn), the pIC50 in assay [1] is 5.10.

Take `COc1cc(NC(C)CCCN2C(=O)[C@H](C)N(C(=O)CN)C2(C)C)c2ncccc2c1` (stereo partly drawn): the pIC50 in assay [1] was 5.26.

In assay [1], `COc1cc(NC(C)CCCN2C(=O)CN(C(=O)[C@@H](N)CCSC)C2(C)C)c2ncccc2c1` (stereo partly drawn) showed a pIC50 of 4.92.

On to `COc1cc(NC(C)CCCN2C(=O)CN(C(=O)[C@@H](N)CC(C)C)C2(C)C)c2ncccc2c1` (stereo partly drawn), for which the pIC50 in assay [1] was 5.20. Compared with the last molecule, the pIC50 is 0.28 log units higher.

`COc1cc(NC(C)CCCN2C(=O)CN(C(=O)[C@H](C)N)C2(C)C)c2ncccc2c1` (stereo partly drawn): the Activity in assay [5] stood at 40.1%; in assay [2], 1.34; in assay [3], 67.9%; in assay [4], 9.71. The pIC50 in assay [1] was 5.10.

In assay [1], `COc1cc(NC(C)CCCN2C(=O)[C@H](CCSC)N(C(=O)CN)C2(C)C)c2ncccc2c1` (stereo partly drawn) gave a pIC50 of 5.48.

With `COc1cc(NC(C)CCCN)c2ncccc2c1` (stereo not drawn) [PRIMAQUINE], the Activity in assay [5] stood at 42.9%; in assay [2] it was 0.95; in assay [3] it was 41.7%; in assay [4], 2.
